According to PMC6155437 (Molecules : A Journal of Synthetic Chemistry and Natural …, 2017):

Tests used:
Type in all cases: in vitro ADME
Conditions in all cases: at 50 µM
CYP2D6 = biological target: T1, CYP2D6 (Homo sapiens, UniProt P10635); assay: CYP2D6 bufuralol 1′-hydroxylase inhibition in human liver microsomes
T1 construct: pooled human liver microsomes (0.2 mg/mL); tissue Corning Life Sciences; host or cells: pooled human liver microsomes (150 donors)
Protocol: After a 3-min pre-incubation at 37 °C, the reactions were initiated by addition of NADPH and incubation proceeded for 15 min at 37 °C in a shaking water bath. […] The incubation mixtures were centrifuged (13,000× g, 4 min, 4 °C). All assays were performed in triplicate and mean values were used in calculations.
Each reaction was initiated by adding the seven-CYP probe substrate cocktail.
The metabolites formed from CYP substrates were quantified simultaneously by a LC-MS/MS method described previously. The ESI source settings in positive-ion mode for metabolite ionization were: capillary voltage, 4200 V; vaporizer temperature, 350 °C; capillary temperature, 330 °C; sheath gas pressure, 35 psi; and auxiliary gas pressure, 15 psi. […] Analytical data were processed using Xcalibur software (version 2.1, Thermo Scientific).
(§1) The apparent kinetic parameters for inhibitory potential (Ki and kinact values) and inhibition mode were estimated from the fitted curves using the Enzyme Kinetics program (ver. 1.1; Systat Software Inc., San Jose, CA, USA).

UGT1A9 = biological target: T2, UGT1A9 (Homo sapiens, UniProt O60656); assay: UGT1A9 mycophenolic acid glucuronidation inhibition in human liver microsomes
T2 construct: pooled human liver microsomes (0.2 mg/mL), 5 mM UDPGA; tissue Corning Life Sciences; host or cells: pooled human liver microsomes (150 donors)
T2 sequence (O60656 26-530): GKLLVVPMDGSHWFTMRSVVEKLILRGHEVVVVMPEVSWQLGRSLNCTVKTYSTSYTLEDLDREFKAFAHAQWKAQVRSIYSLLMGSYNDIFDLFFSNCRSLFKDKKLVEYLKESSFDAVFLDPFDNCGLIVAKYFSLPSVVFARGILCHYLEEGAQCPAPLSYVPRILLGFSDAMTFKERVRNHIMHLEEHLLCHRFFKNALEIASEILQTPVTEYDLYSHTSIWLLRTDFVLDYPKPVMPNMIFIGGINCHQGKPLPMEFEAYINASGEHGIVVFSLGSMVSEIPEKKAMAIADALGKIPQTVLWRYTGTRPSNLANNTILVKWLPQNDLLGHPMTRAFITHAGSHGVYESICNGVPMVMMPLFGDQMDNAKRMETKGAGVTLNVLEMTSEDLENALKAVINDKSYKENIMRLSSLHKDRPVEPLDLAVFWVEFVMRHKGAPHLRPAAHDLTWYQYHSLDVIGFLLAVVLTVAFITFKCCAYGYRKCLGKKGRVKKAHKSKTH
Protocol: (§2) After 3 min of pre-incubation at 37 °C, the reactions were initiated by addition of UDPGA; incubation continued for 60 min at 37 °C in a shaking water bath. The reaction was stopped by placing the tubes on ice and adding 50 µL ice-cold acetonitrile containing internal standards (propofol glucuronide for chenodeoxycholic acid 24-acyl-β-glucuronide and mycophenolic acid glucuronide, and meloxicam for SN-38 glucuronide, trifluoperazine glucuronide, N-acetylserotonin β-D-glucuronide, and naloxone 3-β-D-glucuronide). The incubation mixtures were centrifuged (13,000× g, 4 min, 4 °C). All assays were performed in triplicate and average values were used in calculations.
(§3) The metabolites formed from the six UGT cocktail substrates were measured simultaneously using the LC-MS/MS method. The ESI source settings in both positive- and negative-ion modes for metabolite ionization were: capillary voltage, 4200 V; vaporizer temperature, 350 °C; capillary temperature, 330 °C; sheath gas pressure, 35 psi; and auxiliary gas pressure, 15 psi. […] Data were processed using Xcalibur software.
as §1

UGT1A6 = biological target: T3, UGT1A6 (Homo sapiens, UniProt P19224); assay: UGT1A6 N-acetylserotonin glucuronidation inhibition in human liver microsomes
T3 construct: pooled human liver microsomes (0.2 mg/mL), 5 mM UDPGA; tissue Corning Life Sciences; host or cells: pooled human liver microsomes (150 donors)
T3 sequence (P19224 27-532): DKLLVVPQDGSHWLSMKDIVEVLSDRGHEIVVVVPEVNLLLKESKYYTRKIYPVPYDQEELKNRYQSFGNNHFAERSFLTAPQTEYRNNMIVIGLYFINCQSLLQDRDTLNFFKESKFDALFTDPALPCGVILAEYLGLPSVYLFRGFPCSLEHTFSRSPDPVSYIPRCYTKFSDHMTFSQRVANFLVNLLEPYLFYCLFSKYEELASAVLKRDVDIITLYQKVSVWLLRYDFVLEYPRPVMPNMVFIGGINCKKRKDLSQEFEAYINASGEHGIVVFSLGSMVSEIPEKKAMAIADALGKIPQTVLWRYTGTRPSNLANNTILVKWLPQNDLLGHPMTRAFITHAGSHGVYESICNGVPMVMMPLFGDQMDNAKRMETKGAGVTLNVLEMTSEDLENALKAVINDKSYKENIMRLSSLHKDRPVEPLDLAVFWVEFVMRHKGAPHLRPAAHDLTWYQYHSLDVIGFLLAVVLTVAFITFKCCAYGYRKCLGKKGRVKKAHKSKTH
Protocol: as §2, §3, §1

T1 sequence (P10635 whole entry): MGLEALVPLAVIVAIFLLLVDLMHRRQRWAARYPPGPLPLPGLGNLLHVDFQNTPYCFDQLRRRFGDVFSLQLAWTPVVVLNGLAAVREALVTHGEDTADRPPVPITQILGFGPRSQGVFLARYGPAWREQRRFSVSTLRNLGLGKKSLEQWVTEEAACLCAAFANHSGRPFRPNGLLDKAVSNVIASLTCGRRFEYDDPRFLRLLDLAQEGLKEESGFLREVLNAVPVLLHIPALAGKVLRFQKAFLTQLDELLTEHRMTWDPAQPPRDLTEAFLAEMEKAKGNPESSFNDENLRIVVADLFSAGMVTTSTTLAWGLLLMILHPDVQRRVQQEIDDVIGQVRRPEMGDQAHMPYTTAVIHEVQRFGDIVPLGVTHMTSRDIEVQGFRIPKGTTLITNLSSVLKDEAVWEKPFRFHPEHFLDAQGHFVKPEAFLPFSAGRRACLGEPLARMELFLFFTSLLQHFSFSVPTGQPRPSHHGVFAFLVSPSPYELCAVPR

O=C(c1cccc2ccccc12)c1cn(CCCCCF)c2ccccc12 [AM-2201, 1-(5-fluoropentyl-1H-indol-3-yl)-(naphthalene-1-yl)methanone]
negligibly inhibited: inhibition of CYP2D6-mediated bufuralol 1′-hydroxylation (CYP2D6) | inhibition of UGT1A9-catalyzed mycophenolic acid glucuronidation (UGT1A9) | inhibition of UGT1A6-catalyzed N-acetylserotonin glucuronidation (UGT1A6)
